Data on one substance can be found in patent publication US8691280B2, “Microsphere comprising an organic lanthanide metal complex” (UMC Utrecht Holding B.V., priority 2007, dated 2014).

This data set can be described thus: Determination of lanthanide (holmium, gadolinium) content of microspheres by complexometric titration and ICP-OES. Type of data set: physicochemical. As to conditions: Table 1, measured composition. Here is the method:
The holmium content of the microspheres was determined using the complexometric titration for aluminium that has been described in the European Pharmacopoeia. In short, approximately 50 mg of the dried microspheres is accurately weighed, and dissolved in 1 N NaOH. To this solution 1 N HCl is added and the solution is diluted to 50 ml, 5 grams hexamethylentetramine is added and the pH is adjusted to 5, using 1 N HCl. Approximately 50 mg of xylenol orange is added as an indicator, and the solution is then titrated with 0.01 M EDTA, until the colour changes from purple to yellow. Analyses were performed in triplicate.
The holmium content was measured by inductively coupled plasma optical emission spectrometry (IPC-OES). The microspheres are weighed and destructed at 100° C. with 5 ml 1 N NaOH, which was evaporated to dryness. 15 ml of 2% Nitric acid was added followed by a 1 in 50 dilution. Samples were introduced in an Optima 4300 CV (PerkinElmer; Norwalk, USA) and […] was measured at three different wavelengths (345.600, 339.898 and 347.426 nm) to accurately determine the holmium content.
The gadolinium content of the GdAcAc microspheres was determined in the same way as described in Example 1.

Take “holmium acetylacetonate [HoAcAc crystals]”: the “Ho, measured elemental composition” value was found to be 31.2 % w/w.
